Reference: US20050187181A1 (University of Maryland, priority 2004, published 2005)
Entries after “also recorded” stand apart in the source; their conditions may differ.

Legend:
Na/K ATPase = Na/K ATPase assay (86Rb uptake into red blood cells);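 on all read-outs here: washed human red blood cells in K-free Ringer, test agent preincubated 20 min, then 86Rb uptake over 4 h at 37 °C counted as CPM per tube versus water control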; conditions: for Na/K ATPase activity in erythrocytes: 6-thio inosine and 6-thio guanosine both 1 mM (FIG. 17); for Na/K ATPase stimulatory activity of adenosine analogs and metabolites: 1 mM (FIG. 4); for effect of equilibrative nucleoside transport inhibitor on purine stimulation of Na/K ATPase: dipyridamole 1 mM, NBTI 10 μM, purine 1 mM (FIGS. 12 and 13); for effect of phosphate analogs and bases on Na/K ATPase: FIG. 10; for relative effectiveness at stimulating Na/K ATPase: 10^-3 Molar (FIG. 8); for stimulation of Na/K ATPase: human red blood cells, dose response (FIG. 3b, FIG. 8); for stimulation of Na/K ATPase in the presence of ouabain: partial inhibition / sub maximal doses of ouabain (FIG. 9); for effect of adenosine-receptor blocker on stimulation of Na/K ATPase by inosine, adenosine, guanosine, deoxyadenosine or deoxyguanosine: FIG. 11; for effect of adenosine-receptor blocker on adenosine stimulation of Na/K ATPase: equimolar doses added together with adenosine (FIG. 5); for effect of pyrimidines on Na/K ATPase: doses ranging from 10^-3 to 10^-10 M; for effect of hormones on Na/K ATPase activity: doses of 10^-3 to 10^-9 M
Protocol: Human red blood cells of any group-type were donated for research by the Blood Bank of the University Of Maryland, School of Medicine. Five ml of red cells are washed 3 times in 40 ml of Potassium free Ringers solution (141 mM NaCl, 1 mM H2NaPO4, 0.5 mM CaCl2, 1 mM MgSO4, 4.5 mM glucose, 10 mM HEPES pH7.4). 50 μl of washed red cells are added to 220 μl of potassium free Ringers solution. 30, 10, 3 or 1 μl of ultra-filtrate, HPLC (high performance liquid chromatography) fraction, or adenosine, inosine, guanosine, deoxyadenosine, deoxyguanosine, caffeine, aminophylline, dipyridamole, NBTI, 6thioinosine, 6thioguanosine, or EHNA (all in buffer) is added to the mixture and incubated for 20 min. 4 μCi of 86RbCl is added and incubated for 4 hrs at 37° C. The mixture is than washed three times with 4° C. Potassium free Ringers solution and the cells counted in a gamma counter (Packard, Cobra II). Na/K ATPase activity is expressed as the CPM (counts per minute) (CPM/tube*4 hrs). The effects of ultra-filtrate or HPLC fractions on ^86Rb uptake into red cells are compared to equal volumes of either water (control) or, in some cases, 0.01 mM Ouabain (maximal inhibition).

[1] = tested on: rats in severe hemorrhagic shock; test: Rat shock model for adenosine experiments (0.5 mM adenosine resuscitation); type: in vivo
Protocol: It was hypothesized that stimulation of Na/K ATPase with adenosine may reverse, alleviate or attenuate the effects of an endogenous inhibitor that appears during hemorrhagic shock. […] Blood samples (0.5 ml) were taken before hemorrhage, before resuscitation and 1 hr after resuscitation for measurement of plasma K and Na.
All animal procedures are conducted with the authorization of the Institutional Animal Care and Use Committee at the University of Maryland, School of Medicine. […] Blood samples (0.5 ml) were taken before hemorrhage, before resuscitation and 1 hr after resuscitation for measurement of plasma K and Na. Blood was centrifuged 3500 rpm for 2 min, plasma removed and K and Na was measured by flame photometer. Before and after resuscitation potassium (K) was analyzed by Newman Keul post hoc test after ANOVA.

[2] = tested on: rats in severe hemorrhagic shock; conditions: for effect on shock-elevated plasma K^+: 0.5 hr; for Plasma K^+ 0.5 hr after Resuscitation: mean ± SE, N = 7/group; for survival compared to saline and cytidine controls (Kaplan-Meier): single dose of 2.5 mM in saline, 8 rats/group, p<0.001
Protocol: Pentobarbital-anesthetized rats were subjected to severe hemorrhagic shock. Five groups of eight rats were resuscitated.
Plasma K^+ was measured from plasma taken before hemorrhage, before resuscitation and 0.5 hrs after resuscitation using a K^+ electrode (Jenco Electronics, Inc., San Diego, Calif.). Survival time between groups was compared by Kaplan-Meier survival Analysis.

Compound: CCCCCC[C@@H]([C@@H](C)O)n1cnc2c(N)ncnc21 (racemic) [EHNA, erythrohydroxy3-nonyl-adenine]
- Na/K ATPase activity in erythrocytes (Na/K ATPase): stimulate Na/K ATPase

Compound: Nc1nc2c(ncn2[C@@H]2O[C@H](CO)[C@@H](O)[C@H]2O)c(=S)[nH]1 [6-thioguanosine]
- Na/K ATPase activity in erythrocytes (Na/K ATPase): stimulate Na/K ATPase

Compound: OC[C@H]1O[C@@H](n2cnc3c(S)ncnc32)[C@H](O)[C@@H]1O [6-thioinosine]
- Na/K ATPase activity in erythrocytes (Na/K ATPase): stimulate Na/K ATPase

Compound: Nc1ncnc2c1ncn2[C@@H]1O[C@H](COP(=O)(O)OP(=O)(O)O)[C@@H](O)[C@H]1O [ADP]
- Na/K ATPase stimulatory activity of adenosine analogs and metabolites (Na/K ATPase): little or no Na/K ATPase stimulatory activity

Compound: Nc1ncnc2c1ncn2[C@@H]1O[C@H](COP(=O)(O)O)[C@@H](O)[C@H]1O [AMP]
- Na/K ATPase stimulatory activity of adenosine analogs and metabolites (Na/K ATPase): little or no Na/K ATPase stimulatory activity

Compound: Nc1ncnc2c1ncn2[C@@H]1O[C@H](COP(=O)(O)OP(=O)(O)OP(=O)(O)O)[C@@H](O)[C@H]1O [ATP]
- Na/K ATPase stimulatory activity of adenosine analogs and metabolites (Na/K ATPase): little or no Na/K ATPase stimulatory activity

Compound: O=[N+]([O-])c1ccc(CSc2ncnc3c2ncn3[C@@H]2O[C@H](CO)[C@@H](O)[C@H]2O)cc1 [NBTI, S-(4-nitrobenzyl)-6-thioinosine]
- effect of equilibrative nucleoside transport inhibitor on purine stimulation of Na/K ATPase (Na/K ATPase): blocked stimulation of Na/K ATPase by any of the five purines tested

Compound: Nc1ncnc2nc[nH]c12 [adenine]
- Na/K ATPase stimulatory activity of adenosine analogs and metabolites (Na/K ATPase): little or no Na/K ATPase stimulatory activity
- effect of phosphate analogs and bases on Na/K ATPase (Na/K ATPase): None of the purine analogs significantly affected Na/K ATPase

Compound: Nc1ncnc2c1ncn2[C@@H]1O[C@H](CO)[C@@H](O)[C@H]1O [adenosine]
- plasma K after resuscitation ([1]; 1 hr after resuscitation, 0.5 mM): recovery of plasma K to prehemorrhage levels by 1 hr
- survival ([1]; at about 70 minutes after resuscitation, 0.5 mM): 100%
- survival ([1]; at about 160 minutes, 0.5 mM): about 25%
- survival ([1]; from 70 to 120 minutes, 0.5 mM): 85%
- bradycardia ([1]; shocked rats, 0.5 mM infusion (about 3 to 4.5 mg/kg)): caused bradycardia
- survival compared to saline alone (Kaplan-Meier) ([1]; single dose 0.5 mM in saline, infusion volume equal to blood lost, p<0.01): significantly prolonged survival
- effect on shock-elevated plasma K^+ ([2]; 2.5 mM in saline): lowered the shock-elevated plasma K^+
- Plasma K^+ 0.5 hr after Resuscitation ([2]; 2.5 mM in saline): 3.10 ± 0.20 mM
- survival compared to saline and cytidine controls (Kaplan-Meier) [2]: survived significantly longer than saline or cytidine controls; also recorded: significantly increased survival; also recorded: survived significantly longer
- relative effectiveness at stimulating Na/K ATPase (Na/K ATPase): more effective at stimulating Na/K ATPase than guanosine and inosine
- stimulation of Na/K ATPase (Na/K ATPase): stimulated Na/K ATPase in a dose-dependent manner
- stimulation of Na/K ATPase in the presence of ouabain (Na/K ATPase): this stimulation occurs even in the presence of ouabain

Compound: Cn1c(=O)c2[nH]cnc2n(C)c1=O [aminophylline]
- effect of adenosine-receptor blocker on stimulation of Na/K ATPase by inosine, adenosine, guanosine, deoxyadenosine or deoxyguanosine (Na/K ATPase): Neither of these adenosine-receptor blockers had a significant effect on stimulation of Na/K ATPase
- effect of adenosine-receptor blocker on adenosine stimulation of Na/K ATPase (Na/K ATPase): did not affect the ability of adenosine to stimulate Na/K ATPase

Compound: Cn1c(=O)c2c(ncn2C)n(C)c1=O [caffeine]
- effect of adenosine-receptor blocker on stimulation of Na/K ATPase by inosine, adenosine, guanosine, deoxyadenosine or deoxyguanosine (Na/K ATPase): Neither of these adenosine-receptor blockers had a significant effect on stimulation of Na/K ATPase
- effect of adenosine-receptor blocker on adenosine stimulation of Na/K ATPase (Na/K ATPase): did not affect the ability of adenosine to stimulate Na/K ATPase

Compound: Nc1ccn([C@@H]2O[C@H](CO)[C@@H](O)[C@H]2O)c(=O)n1 [cytidine, reference compound]
- time to 100% mortality ([2]; 2.5 mM in saline): 50 min
- time within which all resuscitated rats died ([2]; 2.5 mM in saline): ≤ 52 min
- mean arterial blood pressure after resuscitation ([2]; 2.5 mM in saline (FIG. 15)): mean arterial blood pressure fell earlier
- effect on shock-elevated plasma K^+ ([2]; 2.5 mM in saline): did not lower plasma K^+ concentration
- Plasma K^+ 0.5 hr after Resuscitation ([2]; 2.5 mM in saline): 4.30 ± 0.35 mM
- effect of pyrimidines on Na/K ATPase (Na/K ATPase): had no effect in the assay

Compound: Nc1ncnc2c1ncn2[C@H]1C[C@H](O)[C@@H](CO)O1 [deoxyadenosine]
- relative effectiveness at stimulating Na/K ATPase (Na/K ATPase): less effective than guanosine and inosine, but more effective than deoxyguanosine
- stimulation of Na/K ATPase (Na/K ATPase): stimulated Na/K ATPase in a dose-dependent manner
- stimulation of Na/K ATPase in the presence of ouabain (Na/K ATPase): overcame partial inhibition by ouabain

Compound: Nc1ccn([C@H]2C[C@H](O)[C@@H](CO)O2)c(=O)n1 [deoxycytidine]
- effect of pyrimidines on Na/K ATPase (Na/K ATPase): had no effect in the assay

Compound: Nc1nc2c(ncn2[C@H]2C[C@H](O)[C@@H](CO)O2)c(=O)[nH]1 [deoxyguanosine]
- stimulation of Na/K ATPase (Na/K ATPase): stimulated Na/K ATPase in a dose-dependent manner
- stimulation of Na/K ATPase in the presence of ouabain (Na/K ATPase): overcame partial inhibition by ouabain

Compound: OCCN(CCO)c1nc(N2CCCCC2)c2nc(N(CCO)CCO)nc(N3CCCCC3)c2n1 [dipyridamole]
- effect of equilibrative nucleoside transport inhibitor on adenosine stimulation of Na/K ATPase (Na/K ATPase; dipyridamole 1 mM (FIG. 6)): blocked adenosine stimulation of Na/K ATPase
- effect of equilibrative nucleoside transport inhibitor on purine stimulation of Na/K ATPase (Na/K ATPase): blocked stimulation of Na/K ATPase by any of the five purines tested

Compound: NCCc1ccc(O)c(O)c1 [dopamine]
- effect of hormones on Na/K ATPase activity (Na/K ATPase): had no effect on Na/K ATPase activity

Compound: CNC[C@H](O)c1ccc(O)c(O)c1 [epinephrine]
- effect of hormones on Na/K ATPase activity (Na/K ATPase): had no effect on Na/K ATPase activity

Compound: Nc1nc2nc[nH]c2c(=O)[nH]1 [guanine]
- effect of phosphate analogs and bases on Na/K ATPase (Na/K ATPase): None of the purine analogs significantly affected Na/K ATPase

Compound: Nc1nc2c(ncn2[C@@H]2O[C@H](CO)[C@@H](O)[C@H]2O)c(=O)[nH]1 [guanosine]
- bradycardia on resuscitation from hemorrhagic shock ([2]; 2.5 mM in saline): did not cause the bradycardia
- time to 50% mortality ([2]; 2.5 mM in saline): sooner than with inosine
- time to 100% mortality ([2]; 2.5 mM in saline): 200 min
- effect on shock-elevated plasma K^+ ([2]; 2.5 mM in saline): lowered the shock-elevated plasma K^+
- Plasma K^+ 0.5 hr after Resuscitation ([2]; 2.5 mM in saline): 3.01 ± 0.15 mM
- adverse effects on resuscitation from hemorrhagic shock ([2]; rat, in vivo): without any adverse effects
- survival compared to saline and cytidine controls (Kaplan-Meier) [2]: survived significantly longer than saline or cytidine controls; also recorded: significantly increased survival; also recorded: survived significantly longer
- relative effectiveness at stimulating Na/K ATPase (Na/K ATPase): both equally effective
- stimulation of Na/K ATPase (Na/K ATPase): stimulated Na/K ATPase in a dose-dependent manner
- stimulation of Na/K ATPase in the presence of ouabain (Na/K ATPase): overcame partial inhibition by ouabain

Compound: O=c1[nH]cnc2nc[nH]c12 [hypoxanthine]
- Na/K ATPase stimulatory activity of adenosine analogs and metabolites (Na/K ATPase): little or no Na/K ATPase stimulatory activity
- effect of phosphate analogs and bases on Na/K ATPase (Na/K ATPase): None of the purine analogs significantly affected Na/K ATPase

Compound: NC[C@H](O)c1ccc(O)c(O)c1 [norepinephrine]
- effect of hormones on Na/K ATPase activity (Na/K ATPase): had no effect on Na/K ATPase activity

Compound: C[C@@H]1O[C@@H](O[C@H]2C[C@@H](O)[C@]3(CO)[C@H]4[C@H](O)C[C@]5(C)[C@@H](C6=CC(=O)OC6)CC[C@]5(O)[C@@H]4CC[C@]3(O)C2)[C@H](O)[C@H](O)[C@H]1O [ouabain]
- inhibition of Na/K ATPase stimulation by the rat plasma ultra-filtrate (Na/K ATPase; FIG. 3a): inhibited in a dose-dependent manner
- inhibition of Na/K ATPase stimulation by adenosine (Na/K ATPase; FIG. 3c): inhibited in a dose dependent manner
- inhibition of Na/K ATPase stimulation by inosine, guanosine, deoxyadenosine and deoxyguanosine (Na/K ATPase; maximal doses of ouabain (FIG. 9)): inhibited by maximal doses of ouabain

Compound: Cc1cn([C@H]2C[C@H](O)[C@@H](CO)O2)c(=O)[nH]c1=O [thymidine]
- effect of pyrimidines on Na/K ATPase (Na/K ATPase): had no effect in the assay

Compound: N[C@@H](Cc1cc(I)c(Oc2cc(I)c(O)c(I)c2)c(I)c1)C(=O)O [thyroxine]
- effect of hormones on Na/K ATPase activity (Na/K ATPase): had no effect on Na/K ATPase activity

Compound: O=c1[nH]c(=O)c2[nH]c(=O)[nH]c2[nH]1 [uric acid]
- Na/K ATPase stimulatory activity of adenosine analogs and metabolites (Na/K ATPase): little or no Na/K ATPase stimulatory activity

Compound: O=c1ccn([C@@H]2O[C@H](CO)[C@@H](O)[C@H]2O)c(=O)[nH]1 [uridine]
- effect of pyrimidines on Na/K ATPase (Na/K ATPase): had no effect in the assay

Compound: NC(=O)CC[C@@H]1NC(=O)[C@H](Cc2ccccc2)NC(=O)[C@H](Cc2ccc(O)cc2)NC(=O)[C@@H](N)CSSC[C@@H](C(=O)N2CCC[C@H]2C(=O)N[C@@H](CCCN=C(N)N)C(=O)NCC(N)=O)NC(=O)[C@H](CC(N)=O)NC1=O [vasopressin]
- effect of hormones on Na/K ATPase activity (Na/K ATPase): had no effect on Na/K ATPase activity

Compound: O=c1[nH]c(=O)c2[nH]cnc2[nH]1 [xanthine]
- Na/K ATPase stimulatory activity of adenosine analogs and metabolites (Na/K ATPase): little or no Na/K ATPase stimulatory activity

Compound: Insulin
- effect of hormones on Na/K ATPase activity (Na/K ATPase): had no effect on Na/K ATPase activity
